Assays:
CYP2B6 = molecular target: T1, CYP2B6 (Homo sapiens, UniProt P20813); experiment: CYP2B6 inhibition, CYP2B6/EFC High Throughput Inhibitor Screening Kit; type: in vitro ADME
T1 construct: purchased Becton Dickinson Biosciences (Heidelberg, Germany)
Method: (§1) Inhibition studies for CYP2B6, CYP2D6, CYP2C19 and CYP3A4 were performed with the CYP2B6/EFC, CYP2D6/AMMC, the CYP2C19/CEC, and the CYP3A4/BFC High Throughput Inhibitor Screening Kit according to the manufacturer’s instructions. The kits contain the respective recombinant CYP and fluorogenic substrates, which are blocked dyes emitting a fluorescence signal when cleaved by the enzyme. For testing CYP1A2 inhibition, the P450-Glo CYP1A2 Screening System was used according to the manufacturer’s instructions. The kit contains the luminogenic CYP1A2 substrate luciferin-ME, which is converted by CYP1A2 into luciferin-generating light when incubated with the luciferin detection reagent of the kit. Eight concentrations of venetoclax in duplicates (0.009–20 µM) were tested in the fluorescence assays, and eight concentrations in triplicate (0.05–100 µM) were tested for the luminogenic assay. Each experiment was conducted in triplicate.

CYP2D6 = molecular target: T2, CYP2D6 (Homo sapiens, UniProt P10635); experiment: CYP2D6 inhibition, CYP2D6/AMMC High Throughput Inhibitor Screening Kit; type: in vitro ADME; conditions: recombinant CYP, fluorogenic substrate, 0.009–20 µM tested
T2 construct: purchased Becton Dickinson Biosciences (Heidelberg, Germany)
T2 sequence (P10635 whole entry): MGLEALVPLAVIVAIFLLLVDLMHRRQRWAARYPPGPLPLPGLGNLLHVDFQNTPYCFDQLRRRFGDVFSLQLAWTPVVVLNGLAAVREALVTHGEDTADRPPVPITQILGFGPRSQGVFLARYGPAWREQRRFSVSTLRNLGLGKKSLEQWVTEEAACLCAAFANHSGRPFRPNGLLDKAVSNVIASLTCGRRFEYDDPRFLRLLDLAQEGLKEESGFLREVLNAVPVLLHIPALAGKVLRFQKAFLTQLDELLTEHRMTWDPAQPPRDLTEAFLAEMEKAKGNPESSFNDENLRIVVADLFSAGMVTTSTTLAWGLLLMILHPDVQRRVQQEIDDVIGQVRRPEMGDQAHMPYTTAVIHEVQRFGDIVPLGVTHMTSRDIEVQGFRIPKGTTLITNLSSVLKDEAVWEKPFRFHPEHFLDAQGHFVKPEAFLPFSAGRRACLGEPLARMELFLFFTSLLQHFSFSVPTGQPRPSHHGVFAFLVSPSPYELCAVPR
Method: as §1

CYP3A4 = molecular target: T3, CYP3A4 (Homo sapiens, UniProt P08684); experiment: CYP3A4 inhibition, CYP3A4/BFC High Throughput Inhibitor Screening Kit; type: in vitro ADME; conditions: recombinant CYP, fluorogenic substrate
T3 construct: purchased Becton Dickinson Biosciences (Heidelberg, Germany)
T3 sequence (P08684 whole entry): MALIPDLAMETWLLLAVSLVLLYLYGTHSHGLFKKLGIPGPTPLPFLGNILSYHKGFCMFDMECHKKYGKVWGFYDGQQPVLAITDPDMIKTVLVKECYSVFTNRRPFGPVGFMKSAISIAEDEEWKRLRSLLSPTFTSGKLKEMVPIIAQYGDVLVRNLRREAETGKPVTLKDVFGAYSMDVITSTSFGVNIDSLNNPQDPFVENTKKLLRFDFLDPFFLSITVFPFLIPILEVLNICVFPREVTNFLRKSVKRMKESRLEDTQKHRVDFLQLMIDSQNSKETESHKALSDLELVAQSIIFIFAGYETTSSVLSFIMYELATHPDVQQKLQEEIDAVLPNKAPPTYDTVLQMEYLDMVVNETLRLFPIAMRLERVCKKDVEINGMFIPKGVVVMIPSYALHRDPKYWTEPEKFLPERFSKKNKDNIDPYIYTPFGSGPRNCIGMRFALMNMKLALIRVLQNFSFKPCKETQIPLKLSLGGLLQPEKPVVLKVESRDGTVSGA
Method: as §1

[1] = Growth inhibition assay in MDCKII-BCRP cells; type: cell-based; conditions: dog, MDCKII-BCRP cells (BCRP over-expressing)
Method: (§2) MDCKII cells. […] Moreover, MDCKII-BCRP cells were used to assess BCRP inhibition by venetoclax. MDCKII over-expressing cell lines were kindly provided by A. H. Schinkel and P. Borst (Amsterdam, The Netherlands). The parental cell line MDCKII (available at ATCC, Manassas, VA, USA) was used as a control. The cells were cultured in Dulbecco’s Modified Eagle’s Medium (DMEM) containing 10% FCS, 2 mM of glutamine, 100 U/mL of penicillin, and 100 µg/mL of streptomycin sulfate. Growth inhibition assays in LS180 cells were conducted to determine suitable maximum concentrations for the induction assay without profound antiproliferative effects. Proliferation was quantified by crystal violet staining of the surviving cells as described previously. […] Growth inhibition assays in MDCKII, and their MRP2 or BCRP over-expressing counterparts ([…], MDCKII-BCRP) and in LLC-PK1 and the corresponding P-gp over-expressing cell line L-MDR1 were conducted to evaluate whether venetoclax sustains its efficacy in MDR cell lines.

[2] = Growth inhibition assay in MDCKII-MRP2 cells; type: cell-based; conditions: dog, MDCKII-MRP2 cells (MRP2 over-expressing)
Method: as §2

[3] = Growth inhibition assay in L-MDR1 cells; type: cell-based, porcine; conditions: pig, L-MDR1 cells (LLC-PK1 over-expressing human ABCB1/P-gp)
Method: LLC-PK1 and L-MDR1 cells. […] L-MDR1 cells were kindly provided by A. H. Schinkel (The Netherlands Cancer Institute, Division of Experimental Therapy, Amsterdam, The Netherlands). The cells were cultured under standard cell culture conditions with medium M199 supplemented with 10% FCS, 2 mM of glutamine, 100 U/mL of penicillin, and 100 µg/mL of streptomycin sulfate. To maintain P-gp/ABCB1 expression the culture medium for L-MDR1 was supplemented with 0.64 µM of vincristine. One day before seeding the cells for the growth inhibition assay, both cell lines were fed with a vincristine-free culture medium. Growth inhibition assays in LS180 cells were conducted to determine suitable maximum concentrations for the induction assay without profound antiproliferative effects. Proliferation was quantified by crystal violet staining of the surviving cells as described previously. […] Growth inhibition assays in MDCKII, and their MRP2 or BCRP over-expressing counterparts ([…], MDCKII-BCRP) and in LLC-PK1 and the corresponding P-gp over-expressing cell line L-MDR1 were conducted to evaluate whether venetoclax sustains its efficacy in MDR cell lines.

ABCB1 = experiment: Induction assay, ABCB1 mRNA by real-time RT-PCR in LS180 cells; type: in vitro ADME, human; conditions: four days, at higher concentrations
Method: (§3) LS180 cells. The human colon adenocarcinoma cell line LS180 (available at ATCC, Manassas, VA, USA) is one of the standard models for investigating pregnane X receptor (PXR) and aryl hydrocarbon receptor (AhR) mediated induction and was thus used for induction experiments. Cells were cultured under standard cell culture conditions with DMEM supplemented with 10% FCS, 2 mM of glutamine, 100 U/mL of penicillin, 100 µg/mL of streptomycin sulfate, and 0.1 mM of nonessential amino acids.
(§4) For the induction experiments, LS180 cells were seeded in 75 cm^2 culturing flasks and incubated for three days. […]
(§5) RNA was isolated using the GenElute™ Mammalian Total RNA Miniprep Kit, and cDNA was synthesized with the RevertAid™ H Minus First Strand cDNA Synthesis Kit according to the manufacturer's instructions. mRNA expression was quantified by real-time RT-PCR with the LightCycler® 480 (Roche Applied Science, Mannheim, Germany) as described previously. […] Data were evaluated via calibrator-normalized relative quantification with efficiency correction using the LightCycler® 480 software version 1.5 (Roche Applied Science, Mannheim, Germany). […] The following target genes were quantified: CYP1A1, CYP1A2, CYP3A4, ABCB1, ABCC2, ABCG2, SLCO1B1 (coding for OATP1B1), UDP-glucuronosyltransferase 1A3 (UGT1A3), and UGT1A9.

SLCO1B1 = experiment: Induction assay, SLCO1B1 mRNA by real-time RT-PCR in LS180 cells; type: in vitro ADME, human; conditions: four days, at 5 µM
Method: as §3, §4, §5

ABCG2 = experiment: Induction assay, ABCG2 mRNA by real-time RT-PCR in LS180 cells; type: in vitro ADME, human; conditions: four days, 0.01–10 µM
Method: as §3, §4, §5

Bcl-xL = test system: Bcl-xL; parameters: method as in PMID 26639348, PMID 23291630; conditions: cited from earlier work

T1 sequence (P20813 whole entry): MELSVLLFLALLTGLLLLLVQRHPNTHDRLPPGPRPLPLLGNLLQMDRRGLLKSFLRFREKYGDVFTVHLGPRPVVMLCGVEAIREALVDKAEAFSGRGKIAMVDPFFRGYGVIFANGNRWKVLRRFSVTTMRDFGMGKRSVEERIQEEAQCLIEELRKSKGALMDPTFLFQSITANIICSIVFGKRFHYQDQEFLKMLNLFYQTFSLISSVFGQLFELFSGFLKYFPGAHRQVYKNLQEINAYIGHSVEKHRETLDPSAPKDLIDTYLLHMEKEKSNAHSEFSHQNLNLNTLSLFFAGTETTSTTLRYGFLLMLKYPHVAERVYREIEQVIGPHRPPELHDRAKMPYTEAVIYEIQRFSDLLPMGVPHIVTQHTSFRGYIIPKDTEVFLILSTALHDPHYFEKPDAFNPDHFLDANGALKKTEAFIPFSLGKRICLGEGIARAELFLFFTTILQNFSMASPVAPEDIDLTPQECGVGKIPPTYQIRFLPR

## CC1(C)CCC(CN2CCN(c3ccc(C(=O)NS(=O)(=O)c4ccc(NCC5CCOCC5)c([N+](=O)[O-])c4)c(Oc4cnc5[nH]ccc5c4)c3)CC2)=C(c2ccc(Cl)cc2)C1 [Venetoclax]
CYP2B6; at 20 µM
  increase of CYP2B6 activity: 1.7 fold
CYP2B6; recombinant CYP, fluorogenic substrate, 0.009–20 µM tested
  IC50 CYP2B6 inhibition: activation
CYP2D6
  IC50 CYP2D6 inhibition: no inhibition
CYP3A4
  IC50: 7.2 ± 3.2 µM
[1]
  IC50: 15.7 ± 0.4 µM
[2]
  IC50: 17.2 ± 1.8 µM
[3]; with LY335979 (P-gp inhibitor), L-MDR1 + LY335979 (1 µM)
  IC50: 25.7 ± 4.1 µM
[3]; L-MDR1, P-gp over-expressing
  IC50: 53.1 ± 4.1 µM
ABCB1
  mRNA expression of ABCB1: suppressed
SLCO1B1
  mRNA expression of SLCO1B1: suppressed
ABCG2
  mRNA expression of ABCG2: unchanged
Bcl-xL
  Bcl-xL inhibition: does not inhibit

— publication PMC4810081, “Venetoclax (ABT-199) Might Act as a Perpetrator in Pharmacokinetic Drug–Drug Interactions” (Pharmaceutics, 2016)
